# Laboratory results reported in paper PMC12663132, “Assessment of cytotoxicity of some synthetic compounds against breast carcinoma spheroids with subsequent analysis of pro-apoptotic and gene expression” (Scientific Reports, 2025).
# Read-outs that look alike come from different tables or passages of the source.
# How the values were obtained:
# MCF7 cell line = assay: Pro-apoptotic activity, M30 Cytodeath ELISA (CK18-Asp396); format: cell-based, human; settings: MCF7 monolayers, 50 µM, 24 h
# Description: The pro-apoptotic activity is measured as fold increase of the spontaneous apoptosis occurred in the DMSO treated negative control ± standard deviation.
# The cutoff was determined as fourfold increase in the apoptosis signal of the negative control.
# The accumulation of CK18-Asp396 in treated MCF7 cell cultures was quantified using the M-30 Cytodeath® ELISA kit according to the manufacturer’s instructions. Briefly, the MCF7 cell line monolayers were exposed to the chemical compounds at a concentration of 50 µM. Following 24 h of incubation, the culture medium was supplemented with 0.1% NP40. Subsequently, aliquots of 25 µL from each well, containing CK18 released into the medium from attached and floating cells and cell fragments, were subjected to the ELISA assay. Cleaved CK18 levels were determined by measuring the absorbance at 450 nm[46].
# MCF7 = assay: Cytotoxicity on MCF7 monolayers (MTT assay); settings: Homo sapiens, MCF7, 72 h, read-out: Mean of % cytotoxicity ± SD
# Description: (§1) Eighty pre-plated synthetic chemical compounds were screened on two human cell lines: MCF7 (ATCC® HTB-22™), a Caucasian breast adenocarcinoma model, and hTERT-RPE-1 (ATCC® CRL-4000™), a normal retinal epithelial cell line immortalized by hTERT telomerase. […] The cells were cultured in DMEM-F12 medium supplemented with L-glutamine and 10% fetal bovine serum, all were purchase from Biowest (Biotechnology company in Nuaillé, France), and maintained in a controlled incubator environment set at 37 °C with 5% CO2 and 95% humidity.
# MCF7 cells were seeded in flat-bottom 96-well plates with a concentration of 20,000 cells/well, and were left overnight. The compounds were tested at a final concentration of 50 µM. Doxorubicin was used as a positive control and 0.5% DMSO as a negative control. The treatment duration was 72 h. The cytotoxicity was then assessed using the MTT assay, as described by Mosmann[43].
# MCF7 3D spheroids = assay: Cytotoxicity on MCF7 3D multicellular spheroids (acid phosphatase method); settings: for cytotoxicity at 50 µM: MCF7, 120 h, read-out: Mean of % cytotoxicity ± S.D
# Description: as §1
# 3-D spheroid models were generated from MCF7 cancer and hTERT-RPE1 normal cells were seeded at 10,000 and 50,000 cells/well, respectively, in poly-HEMA coated round bottom plates according to the protocol previously mentioned[44]. The cells were incubated for 5 days to generate the spheroids with diameter of 500 ± 20 µm. The spheroids were imaged using Olympus S100, U-CMAD3 camera connected to Olympus inverted microscope and the diameter of the spheroids was measured using Cellscen-Entry software. Test compounds were added in triplicate to a final concentration of 50 µM and were incubated for 120 h. […] At the end of incubation, cytotoxicity was determined using the acid phosphatase method[45]. After washing twice with 250 μL PBS buffer, 100 μL of 0.1 M sodium citrate, 0.1% Triton X-100, p-nitrophenylphosphate (2 mg/ml) (Pierce Biotechnology Inc., Rockford, IL) was added to each well and incubated for 1.5 h at 37 °C. After incubation, 10 μL of 1N NaOH stop solution was added to each well, and absorbance was read at 405 nm. Cytotoxicity was calculated according to the following equation:
# MCF7 breast cancer cells = assay: Gene expression profiling by real-time PCR (p53, Bax, Bcl-2, IL-6, TNF-alpha, MMP1); format: cell-based, human; settings: MCF7, IC50 concentration, 24 h, qRT-PCR
# Description: Total RNA was extracted from both control and treated cells using the RNeasy kit. Up to one million cells were subjected to disruption in Buffer RLT, homogenization, and ethanol treatment to promote selective binding of RNA to the RNeasy membrane. High-purity RNA was subsequently eluted using RNase-free water. All binding, washing, and elution steps were performed using centrifugation in a micro-centrifuge. The sample was then applied to an RNeasy Mini spin column, enabling total RNA retention on the membrane while contaminants were efficiently eliminated. The RNA was then used as a template for real-time PCR to quantify the mRNA levels of genes. Two sets of primers were used—one for the IL-6, TNF-alpha, MMP1, p53, Bcl-2, and Bax genes and another for the endogenous control gene, β-actin (Table 6). The real-time PCR reaction was carried out with the following cycling conditions: 50 °C for 45 min (cDNA synthesis), followed by 40 cycles of 95 °C for 10 s and 60 °C for 60 s. A negative control was included to ensure primer specificity and rule out contamination. Finally, the statistical analysis of the expression of the genes was performed using one-way ANOVA followed by the Tukey–Kramer post-test.
# hTERT-RPE1 3D spheroids = assay: Cytotoxicity on normal RPE1 3D spheroids (acid phosphatase method); format: cell-based, human; settings: 120 h
# Description: These cell lines were generously provided by Prof. Stig Linder, Karolinska Institute (Sweden).
# Cytotoxicity was calculated according to the following equation: […]
# [1] = Homo sapiens, MCF7, read-out: IC50 (µM) for MCF7 ± SD, MCF7 3D spheroids
# [2] = read-out: IC50 (µM) for MCF7 ± SD, MCF7 3D spheroids
Structure (SMILES),Fold increase (apoptosis signal vs DMSO negative control) (MCF7 cell line) [fold],cytotoxicity at 50 µM (MCF7) [%],cytotoxicity at 50 µM (MCF7 3D spheroids; Homo sapiens) [%],IC50 (MCF7 3D spheroids; [1]) [µM],"Expression of apoptosis-related genes (Bax, P53, Bcl-2) (MCF7 breast cancer cells)",Cytotoxic effect% ± SD RPE1(50µM) (hTERT-RPE1 3D spheroids) [%],IC50 (MCF7 3D spheroids; [2]) [µM],"Expression of inflammatory markers (IL-6, TNFα, MMP1) (MCF7 breast cancer cells)"
"Cc1cccc(C)c1NC(=O)COC(=S)c1sc2ccccc2c1Cl [A07, 2-(2,6-dimethylanilino)-2-oxoethyl 3-chlorobenzo[b] thiophene-2-carbothioate]",3.64,36.5 ± 1.2,75.1 ± 0.53,31.7 ± 1.2,–,–,–,–
"Nc1ccccc1SCC=CCSc1ccccc1N [C02, 2-({4-[(2-aminophenyl)thio]but-2-enyl}thio)aniline]",–,100 ± 0.003,87.3 ± 4.5,< 26,moderate pro-apoptotic effect compared to the positive control,18.3 ± 0.4,25.3 ± 1.2,–
"O=C(NCCc1c[nH]c2ccccc12)Nc1ccc(Cl)cc1 [D08, N-(4-chlorophenyl)-N'-[2-(1H-indol-3-yl)ethyl]urea]",2.14,97.7 ± 0.47,74 ± 2.9,36.9 ± 0.6,–,39.4 ± 1,–,–
"CCOC(=O)c1c(NS(=O)(=O)c2cccc3nsnc23)sc(C)c1C [F03, ethyl 2-[(2,1,3-benzothiadiazol-4-ylsulfonyl)amino]-4,5-dimethylthiophene-3-carboxylate]",–,70 ± 4,91.5 ± 0.5,< 26,moderate pro-apoptotic effect compared to the positive control,34.4 ± 2.3,18.8 ± 1.3,–
"COc1ccc(OCCC(=O)NNC(=S)Nc2cc(Cl)ccc2Cl)cc1 [F06, N1-(2,5-dichlorophenyl)-2-[3-(4-methoxyphenoxy)propanoyl]hydrazine-1-carbothioamide]",–,80.1 ± 1.7,88 ± 2.5,< 26,greater ability to downregulate Bcl-2 while upregulating both P53 and Bax expression compared to the other compounds,18.4 ± 0.5,24.8 ± 0.6,–
"COC(=O)c1cc(C=C(C#N)C#N)c(OC)cc1OC [H09, methyl 5-(2,2-dicyanovinyl)-2,4-dimethoxybenzoate]",2.56,86.2 ± 1.7,80.8 ± 0.77,41.2 ± 0.83,–,41.2 ± 1.6,–,–
"N.N.[Cl][Pt][Cl] [cisplatin, reference compound]",–,–,–,–,–,–,31.7 ± 1.5,milder pro-inflammatory effects compared to the tested three compounds
